For test [1], the system named is hRSV strain Long. As to the kind of experiment: hRSV CPE assay. In kind it is cell-based, human respiratory syncytial virus.
In test [2] the test system is RSV. As to the kind of experiment: viral titer. The format is cell-based, human respiratory syncytial virus. Conditions: for log reduction at 10 µM: human respiratory syncytial virus, read-out: viral titer reduction at 10 µM.
[3] abbreviates: human respiratory syncytial virus, HEp-2, read-out: RSV CPE potency ± standard deviation EC50, HEp-2 cells, hRSV strain Long, 10-point dose response.
[4] abbreviates: read-out: RSV CPE potency ± standard deviation EC50, HEp-2 cells, hRSV strain Long, 10-point dose response.

Molecules are shown by their SMILES. Read-outs that look alike come from different tables or passages of the source. Marks after values point to notes of the source that are not given here.

Broadly, the EC50 is the concentration that produces a half-maximal response. Turning to `COCCCNC(=O)c1ccc(Cn2c(=O)c3ccccc3n(Cc3ccc(C)cc3)c2=O)cc1` [Compound 2, N-(3-Methoxypropyl)-4-((1-(4-methylbenzyl)-2,4-dioxo-1,2-dihydroquinazolin-3(4H)-yl)methyl)benzamide], the values for the half-maximal effective concentration (EC50) in test [1] (setting [3]) and in test [1] (setting [4]) were 2.14 µM and 2.1 ± 0.5 µM, respectively. In test [2], the log reduction at 10 µM was determined as 4.2.

For `COCCCNC(=O)c1ccc(Cn2c(=O)c3ccccc3n(Cc3ccccc3Br)c2=O)cc1` [Compound 8, 4-((1-(2-Bromobenzyl)-2,4-dioxo-1,2-dihydroquinazolin-3(4H)-yl)methyl)-N-(3-methoxypropyl)benzamide], in test [1] (setting [3]), the 50% effective concentration (EC50) is greater than 50 µM.

Take `COCCCNC(=O)c1ccc(Cn2c(=O)c3ccccc3n(Cc3cccc(Br)c3)c2=O)cc1` [Compound 9, 4-((1-(3-Bromobenzyl)-2,4-dioxo-1,2-dihydroquinazolin-3(4H)-yl)methyl)-N-(3-methoxypropyl)benzamide]: in test [1] (setting [3]), the concentration giving a half-maximal response (EC50) is 2.2 ± 0.1 µM.

`COCCCNC(=O)c1ccc(Cn2c(=O)c3ccccc3n(Cc3ccc(Br)cc3)c2=O)cc1` [Compound 10, 4-((1-(4-Bromobenzyl)-2,4-dioxo-1,2-dihydroquinazolin-3(4H)-yl)methyl)-N-(3-methoxypropyl)benzamide]: in test [1] (setting [3]), the concentration for a half-maximal effect (EC50) stood at 0.9 ± 0.2 µM. The log reduction at 10 µM in test [2] was 4.1.

For `COCCCNC(=O)c1ccc(Cn2c(=O)c3ccccc3n(Cc3ccc(F)cc3)c2=O)cc1` [Compound 12, 4-((1-(4-Fluorobenzyl)-2,4-dioxo-1,2-dihydroquinazolin-3(4H)-yl)-methyl)-N-(3-methoxypropyl)benzamide], in test [1] (setting [3]), the EC50 came out at 5.1 ± 0.4 µM.

For `COCCCNC(=O)c1ccc(Cn2c(=O)c3ccccc3n(Cc3ccc(Cl)cc3)c2=O)cc1` [Compound 13, 4-((1-(4-Chlorobenzyl)-2,4-dioxo-1,2-dihydroquinazolin-3(4H)-yl)methyl)-N-(3-methoxypropyl)benzamide], the EC50 in test [1] (setting [3]) is 6.7 ± 1.9 µM. In addition, in test [2], the log reduction at 10 µM is 3.1.

Regarding `COCCCNC(=O)c1ccc(Cn2c(=O)c3ccccc3n(Cc3ccc(OC)cc3)c2=O)cc1` [Compound 14, 4-((1-(4-Methoxybenzyl)-2,4-dioxo-1,2-dihydroquinazolin-3(4H)-yl)methyl)-N-(3-methoxypropyl)benzamide], the EC50 in test [1] (setting [3]) was found to be 2 ± 0.9 µM. Besides, the log reduction at 10 µM in test [2] was 2.7.

Turning to `COCCCNC(=O)c1ccc(Cn2c(=O)c3ccccc3n(Cc3ccc([N+](=O)[O-])cc3)c2=O)cc1` [Compound 15, N-(3-Methoxypropyl)-4-((1-(4-nitrobenzyl)-2,4-dioxo-1,2-dihydroquinazolin-3(4H)-yl)methyl)benzamide], the EC50 is 0.5 ± 0.05 µM in test [1] (setting [3]) and 0.3 to 0.5 µM in test [1] (human respiratory syncytial virus, RSV CPE, as given in abstract). Moreover, in test [2] (compound at 10 µM), the “viral titer reduction at 10 µM” value is 5.6 ^f log. Also, the log reduction at 10 µM in test [2] is 5.6.

Turning to `COCCCNC(=O)c1ccc(Cn2c(=O)c3ccccc3n(Cc3ccc(C(F)(F)F)cc3)c2=O)cc1` [Compound 16, 4-((2,4-Dioxo-1-(4-(trifluoromethyl)benzyl)-1,2-dihydroquinazolin-3(4H)-yl)methyl)-N-(3-methoxypropyl)benzamide], in test [1] (setting [3]), the EC50 amounted to 1.3 ± 0.1 µM. Also, in test [2], the log reduction at 10 µM was found to be 2.7.

Take `COCCCNC(=O)c1ccc(Cn2c(=O)c3ccccc3n(Cc3ccc(C#N)cc3)c2=O)cc1` [Compound 17, 4-((1-(4-Cyanobenzyl)-2,4-dioxo-1,2-dihydroquinazolin-3(4H)-yl)methyl)-N-(3-methoxypropyl)benzamide]: the EC50 in test [1] (setting [3]) was found to be 1.3 ± 0.2 µM. The log reduction at 10 µM in test [2] was found to be 4.2.

Regarding `CCc1ccc(Cn2c(=O)n(Cc3ccc(C(=O)NCCCOC)cc3)c(=O)c3ccccc32)cc1` [Compound 18, 4-((1-(4-Ethylbenzyl)-2,4-dioxo-1,2-dihydroquinazolin-3(4H)-yl)-methyl)-N-(3-methoxypropyl)benzamide], in test [1] (setting [3]), the EC50 came to 1 ± 0.05 µM. The log reduction at 10 µM in test [2] was determined as 5.9.

As for `COCCCNC(=O)c1ccc(Cn2c(=O)c3ccccc3n(Cc3ccc4nonc4c3)c2=O)cc1` [Compound 20, 4-((1-(Benzo[c][1,2,5]oxadiazol-5-ylmethyl)-2,4-dioxo-1,2-dihydroquinazolin-3(4H)-yl)methyl)-N-(3-methoxypropyl)benzamide], the EC50 in test [1] (setting [3]) is 4.9 ± 0.7 µM. Besides, the log reduction at 10 µM in test [2] was 2.1.

Turning to `COCCCNC(=O)c1ccc(Cn2c(=O)c3ccccc3n(Cc3cc(C)on3)c2=O)cc1` [Compound 21, N-(3-Methoxypropyl)-4-((1-((5-methylisoxazol-3-yl)methyl)-2,4-dioxo-1,2 dihydroquinazolin-3(4H)-yl)methyl)benzamide], the concentration for a half-maximal effect (EC50) in test [1] (setting [3]) is greater than 50 µM.

Take `COCCCNC(=O)c1ccc(Cn2c(=O)c3ccccc3n(Cc3ccccn3)c2=O)cc1` [Compound 22, 4-((2,4-Dioxo-1-(pyridin-2-ylmethyl)-1,2-dihydroquinazolin-3(4H)-yl)methyl)-N-(3-methoxypropyl)benzamide]: in test [1] (setting [3]), the EC50 is greater than 50 µM. Besides, the log reduction at 10 µM in test [2] was determined as 0.1.

In the case of `CCOCCCNC(=O)c1ccc(Cn2c(=O)c3ccccc3n(Cc3ccc(C)cc3)c2=O)cc1` [Compound 24, N-(3-Ethoxypropyl)-4-((1-(4-methylbenzyl)-2,4-dioxo-1,2-dihydroquinazolin-3(4H)-yl)methyl)benzamide], the EC50 in test [1] (setting [3]) was determined as 1.9 ± 0.2 µM.

With `Cc1ccc(Cn2c(=O)n(Cc3ccc(C(=O)NCCCOC(C)C)cc3)c(=O)c3ccccc32)cc1` [Compound 25, N-(3-Isopropoxypropyl)-4-((1-(4-methylbenzyl)-2,4-dioxo-1,2-dihydroquinazolin-3(4H)-yl)methyl)benzamide], the 50% effective concentration (EC50) in test [1] (setting [3]) came to 2 ± 0.2 µM.

Consider `Cc1ccc(Cn2c(=O)n(Cc3ccc(C(=O)NCCCN(C)C)cc3)c(=O)c3ccccc32)cc1` [Compound 26, N-(3-(Dimethylamino)propyl)-4-((1-(4-methylbenzyl)-2,4-dioxo-1,2-dihydroquinazolin-3(4H)-yl)methyl)benzamide], for which the concentration for a half-maximal effect (EC50) in test [1] (setting [3]) is 9.5 ± 0.4 µM.

On to `COCCNC(=O)c1ccc(Cn2c(=O)c3ccccc3n(Cc3ccc(C)cc3)c2=O)cc1` [Compound 28, N-(2-Methoxyethyl)-4-((1-(4-methylbenzyl)-2,4-dioxo-1,2-dihydroquinazolin-3(4H)-yl)methyl)benzamide], for which the EC50 in test [1] (setting [3]) turned out to be 2.2 ± 1.4 µM.

On to `Cc1ccc(Cn2c(=O)n(Cc3ccc(C(=O)N4CCOCC4)cc3)c(=O)c3ccccc32)cc1` [Compound 31, 1-(4-Methylbenzyl)-3-(4-(morpholine-4-carbonyl)benzyl)-quinazoline-2,4(1H,3H)-dione], for which the EC50 in test [1] (setting [3]) is greater than 50 µM.

With `Cc1ccc(Cn2c(=O)n(Cc3ccc(C(=O)N4CCCC4)cc3)c(=O)c3ccccc32)cc1` [Compound 32, 1-(4-Methylbenzyl)-3-(4-(pyrrolidine-1-carbonyl)benzyl)-quinazoline-2,4(1H,3H)-dione], the 50% effective concentration (EC50) in test [1] (setting [3]) was greater than 50 µM.

`Cc1ccc(Cn2c(=O)n(Cc3ccc(C(=O)N4CCCCC4)cc3)c(=O)c3ccccc32)cc1` [Compound 33, 1-(4-Methylbenzyl)-3-(4-(piperidine-1-carbonyl)benzyl)-quinazoline-2,4(1H,3H)-dione]: the EC50 in test [1] (setting [3]) is greater than 50 µM.

Take `CNC(=O)c1ccc(Cn2c(=O)c3ccccc3n(Cc3ccc(C)cc3)c2=O)cc1` [Compound 34, N-Methyl-4-((1-(4-methylbenzyl)-2,4-dioxo-1,2-dihydroquinazolin-3(4H)-yl)methyl)benzamide]: the EC50 in test [1] (setting [3]) amounted to 2.2 ± 0.9 µM.

`Cc1ccc(Cn2c(=O)n(Cc3ccc(C(=O)N(C)C)cc3)c(=O)c3ccccc32)cc1` [Compound 35, N,N-Dimethyl-4-((1-(4-methylbenzyl)-2,4-dioxo-1,2-dihydroquinazolin-3(4H)-yl)methyl)benzamide]: the half-maximal effective concentration (EC50) in test [1] (setting [3]) was greater than 50 µM.

Turning to `Cc1ccc(Cn2c(=O)n(Cc3ccc(C(=O)NC4CCCCC4)cc3)c(=O)c3ccccc32)cc1` [Compound 37, N-Cyclohexyl-4-((1-(4-methylbenzyl)-2,4-dioxo-1,2-dihydroquinazolin-3(4H)-yl)methyl)benzamide], in test [1] (setting [3]), the EC50 is greater than 50 µM.

For the compound `Cc1ccc(Cn2c(=O)n(Cc3ccc(C(=O)Nc4ccccc4)cc3)c(=O)c3ccccc32)cc1` [Compound 38, 4-((1-(4-Methylbenzyl)-2,4-dioxo-1,2-dihydroquinazolin-3(4H)-yl)methyl)-N-phenylbenzamide], in test [1] (setting [3]), the EC50 is greater than 50 µM.

With `Cc1ccc(Cn2c(=O)n(Cc3ccc(C(=O)NCc4ccccc4)cc3)c(=O)c3ccccc32)cc1` [Compound 39, N-Benzyl-4-((1-(4-methylbenzyl)-2,4-dioxo-1,2-dihydroquinazolin-3(4H)-yl)methyl)benzamide], in test [1] (setting [3]), the EC50 is greater than 50 µM.

Take `Cc1ccc(Cn2c(=O)n(Cc3ccc(C(=O)NCc4ccco4)cc3)c(=O)c3ccccc32)cc1` [Compound 40, N-(Furan-2-ylmethyl)-4-((1-(4-methylbenzyl)-2,4-dioxo-1,2-dihydroquinazolin-3(4H)-yl)methyl)benzamide]: in test [1] (setting [3]), the EC50 was greater than 50 µM.

For the compound `Cc1ccc(Cn2c(=O)n(Cc3ccc(C(=O)Nc4nccs4)cc3)c(=O)c3ccccc32)cc1` [Compound 41, 4-((1-(4-Methylbenzyl)-2,4-dioxo-1,2-dihydroquinazolin-3(4H)-yl)methyl)-N-(thiazol-2-yl)benzamide], the 50% effective concentration (EC50) in test [1] (setting [3]) is greater than 50 µM.

`COc1cc(NC(=O)c2ccc(Cn3c(=O)c4ccccc4n(Cc4ccc(C(C)C)cc4)c3=O)cc2)ccn1` [Compound 50, 4-((1-(4-Isopropylbenzyl)-2,4-dioxo-1,2-dihydroquinazolin-3(4H)-yl)methyl)-N-(2-methoxypyridin-4-yl)benzamide]: in test [1] (setting [3]), the concentration giving a half-maximal response (EC50) turned out to be 0.5 ± 0.06 µM.

Turning to `COCCCNC(=O)c1ccc(Cn2c(Cc3cccc(C(C)C)c3)nc3ccccc3c2=O)cc1` [Compound 51, 4-((2-(3-Isopropylbenzyl)-4-oxoquinazolin-3(4H)-yl)methyl)-N-(3-methoxypropyl) benzamide], the half-maximal effective concentration (EC50) in test [1] (setting [4]) was greater than 50 µM.

In the case of `COCCCNC(=O)c1ccc(Cn2c(Cc3ccc(C(C)C)cc3)nc3ccccc3c2=O)cc1` [Compound 52, 4-((2-(4-Isopropylbenzyl)-4-oxoquinazolin-3(4H)-yl)methyl)-N-(3-methoxypropyl)benzamide], the EC50 in test [1] (setting [3]) was greater than 50 µM.

Source of the values: PMC4281105 (Journal of medicinal chemistry, 2014).
